Patent US8361802B2, “Fluorescent ozone sensor” (University of Pittsburgh—Of the Commonwealth System of …, priority 2009, dated 2013)

Tests used:
[1] = Ozone detection in human serum; conditions: human serum diluted in pH 7 buffer, ozone ~5 μM
Description: FIG. 2E illustrates Ozone detection in human serum, wherein Left Sample: 4, no ozone; Right Sample: 4, + ozone.
One embodiment of the present invention utilized sensor 4 to detect ozone in human serum. […] One possible explanation may be due to the small Stokes shift that is found in fluorescein and its derivatives, which makes these fluorophores more prone to influences of scattering and interference.
(§1) Ozone detection in human serum. Human serum (1.0 mL) was diluted in pH 7 buffer ([PO4^3−]=5 mM) (3.0 mL). Solution A (5.0 μL, [compound 4]final=12.5 μM) was added to the resulting human serum mixture, and the samples were exposed to ozone (˜5 μM) at 24° C. followed by 1 hour incubation at 37° C. before fluorescence measurement. The experiment was performed in triplicate with an illustration of one of the tests represented in FIG. 2E.

[2] = system: Human bronchial epithelial cells (BEAS-2B); experiment: Live-cell imaging of human bronchial epithelial cells; assay type: cell-based; conditions: human bronchial epithelial cells
Description: Human bronchial epithelial cells (BEAS-2B) (American Type Culture Collectin) were grown in LHC-9 medium (Invitrogen) on glass-bottomed Petri dishes (MatTek) precoated with 0.01 mg ml^−1 of human fibronectin (Invitrogen), 0.029 mg ml^−1 Vitrogen 100 (Cohesion) and 0.01 mg ml^−1 bovine serum albumin (Invitrogen) in LHC-9 medium. Immediately prior to imaging, cells were rinsed with Hank's balanced salt solution, which contained calcium and magnesium, and placed inside a temperature-controlled, airtight environmental chamber and maintained at 37° C. and 5% CO2. Images were obtained using a Nikon TE2000E-PFS (Perfect focus system) microscope equipped with a […] oil-immersion objective (Nikon, CFI PlanFluor, NA 1.3) and a fluorescien isothiocyanate longpass filter set (Chroma), a Q-Imaging SRV CCD camera (Q-imaging) and MetaMorph software (Molecular Devices). The motorized XYZ stage used was made by ASA (Eugege). Baseline images were collected before the addition of compound 8 and time-lapsed images obtained at 30 second intervals after the addition of compound 8 (250 nM). Once stage baseline had been achieved, multiple washes were carried out and the media replaced. The cells were then exposed to ozone (˜2.1 ppm) and monitored every 30 seconds for 15 minutes. Ozone was generated from medical grade oxygen (Valley Gas) via a model V1-0 ultraviolet ozonator (OREC) and analyzed with a Dasibi (Glendale) direct-reading instrument. Ozone concentrations were maintained by adjusting both the intensity of the ultraviolet light and the flow rate of oxygen. For each experiment, images were collected from six stages, with a minimum of five cells per position (a minimum of 30 cells per […]).
In another embodiment of the invention, human bronchial epitelial cells were incubated with compound 4 to determine ozone's role in cell biology. […] Based on studies why compound 4 and structurally related compounds are not fluorescent, it is believed that the hydroxymethyl group 4 may have been oxidized to give a more electron-withdrawing group, possible a carboxyl or aldehyde group, and so emit a strong fluorescence signal. To circumvent such an oxidation event, compound 8 was prepared specific for ozone. […] Once a steady baseline signal had been established and maintained for five minutes, ozone gas was generated within the airtight environmental chamber that housed the cell-culture dishes, and fluorescent signals were monitored using live-cell microscopy for approximately 15 minutes.
FIGS. 16A-H are photographs of live-cell imaging of human bronchial epithelial cells in the presence of ozone using compound 8. The left-hand panels (FIGS. A-E) are pseudocolour images that indicate the changes in emission intensity over time, and the right-hand panels show differential interference contrast images of the bronchial epithelial cells. FIG. 16A is before the addition of compound 8 (0 seconds). FIG. 16B illustrates the cell at 107 seconds that is a steady state intensity reached with compound 8 at 250 nM. FIG. 16C illustrates the cell at 326 seconds when ozone flow is started. FIG. 16D illustrates the cell at 536 seconds with the emission intensity increasing. FIG. 16E illustrates the cell at 675 seconds when emission maximum is reached. FIG. 16F illustrates the cell at 820 seconds when the cell starts to die. FIG. 16G illustrates the cell at 969 seconds where the cell emission continues to fall. FIG. 16H illustrates the cell at 1148 seconds when the ozone flow is stopped.

[3] = Time-dependence of the conversion of compound 4 to compound 7; conditions: 37° C.
Description: Time-dependence of the conversion of compound 4 to compound 7 in buffer. Solution A ([compound 4]final=12.5 μM) was added to a mixture of MeOH/pH 7 buffer ([PO4^3−]=5 mM) (5:95) (4.0 mL), and the sample was exposed to ozone (˜5 μM) at 24° C. followed by incubation at 37° C. Aliquots of the reaction mixture were taken out at various times for fluorescence measurement (FIG. S6). The conversion of compound 4 to compound 7 requires 60 minutes for completion (presumably the β-elimination is the rate determining step because the formation and fragmentation of molozonides are extremely rapid), but 10-15 minutes is sufficient to observe fluorescence signal.
FIG. 7 illustrates time-dependence of the conversion of compound 4 to compound 7 in cell culture media at 37° C. […]. Solution A ([compound 4]final=12.5 μM) was added to a mixture of 10% FBS in RPMI-1640 cell culture media/pH 7 buffer ([PO4^3−]=5 mM) (1:3) (4.0 mL), and the sample was exposed to ozone (˜5 μM) at 24° C. followed by incubation at 37° C. Aliquots of the reaction mixture were taken out at various times for fluorescence measurement (FIG. 8). The conversion of compound 4 to compound 7 requires 15-20 minutes for completion, but <5 minutes is sufficient to observe fluorescence signal. Although the exact mechanism of this enhancement is not known, catalysis of a β-elimination by action of bovine serum albumin has been previously reported.

[4] = Ozone detection in nasal fluid; conditions: ozone ~5 μM
Description: FIG. 2D illustrates Ozone detection in nasal fluid, wherein Left Sample: 4, no ozone; Right Sample: 4, + ozone.
One embodiment of the present invention is a biomedical probe to detect ozone. Since ozone is believed to be much too reactive to reach and permeate the epithelial cells, ozone detection in the presence of various antioxidants that are found in the epithelial lining fluid was attempted. […] Nasal fluid was tested to more accurately mimic the epithelial lining fluid of the lung.
as §1, with “pleural fluid.” for “serum.”, “pleural fluid” for “serum”, “2D.” for “2E.”

[5] = 10% FBS in RPMI-1640 cell culture media/pH 7 buffer (1:3)
[6] = MeOH/pH 7 buffer (5:95), ozone ~5 μM

cell permeability [2]: cell permeable
SMILES: C=CCCOc1cc2oc3cc(=O)c(Cl)cc-3c(-c3ccccc3CO)c2cc1Cl [compound 4]
S/B [1]: 92
fluorescence inside the cells in the absence of external ozone ([2]; no external ozone): converted to a fluorescent compound inside the cells
time required for completion of conversion of compound 4 to compound 7 [3, 5]: 15 to 20 min
time sufficient to observe fluorescence signal [3, 5]: < 5 min
time required for completion of conversion of compound 4 to compound 7 [3, 6]: 60 min
time sufficient to observe fluorescence signal [3, 6]: 10 to 15 min
S/B [4]: 92
